Read-outs that look alike come from different tables or passages of the source. Each block holds one molecule with its values, some of them ahead of it.
Key:
EGFR = assay: Western blot, target protein degradation in H1975 Cell; type: cell-based, Human; conditions: substrate protein remaining %, treated at 500 nM and 50 nM, 24 hours
Method: (§1) Conventional Western blot assay was performed to evaluate the effects of the compounds of the present disclosure on the expression of target proteins in cells.
(§2) (1) Cell Seeding and Protein Harvesting: The selected cells were processed according to the cell seeding procedure and protein harvesting procedure in Table II-2. Table II-2 Cell Seeding and Protein Harvesting Procedures
(§3) (2) To the collected supernatant, 5X SDS sample loading buffer was added, followed by denaturation at 95°C for 5 minutes. The denatured samples were then separated by SDS-PAGE electrophoresis on a polyacrylamide gel. Proteins were transferred to a nitrocellulose membrane (0.45 µm NC membrane), blocked with blocking buffer at room temperature for 1 hour, and subjected to antibody incubation and development procedures according to the antibody manufacturer's instructions (Cell Signaling Technology).
(§4) Half-Maximal Degradation Concentration value (the drug concentration required for degrading proteins by 50%, abbreviated as DC50) reads method: comparing the grayscale values of Western blot bands from drug-treated samples with those from blank DMSO-treated controls, and identifying the drug concentration range at which the grayscale value is half that of the DMSO-treated control bands.
(§5) DC50 values can be calculated using ImageJ software to measure grayscale values of Western blot bands from drug-treated samples. The concentration-response curve is fitted to estimate the drug concentration corresponding to half the grayscale value.
(§6) Target protein remaining (%) refers to the percentage of target protein remaining in cells after treatment with protein degrader compounds.
(§7) Calculation method for target protein remaining (%): Use ImageJ software to measure grayscale values of Western blot bands from drug (protein degrader)-treated samples. The grayscale value of drug-treated bands is divided by that of internal control protein bands, and the resulting quotient is normalized to obtain the relative percentage of remaining target protein after protein degrader treatment. Target protein degradation rate(%) = 1−target protein remaining(%). [formula]

[1] = biological target: T1, human Cereblon WT GST-tagged protein (Homo sapiens, UniProt Q96SW2); assay: CRBN-binding affinity, HTRF (CEREBLON BINDING kit); conditions: for inhibition at 0.5 µM: read-out: Inhibition Rate at 0.5 µM (%); for inhibition at 2 µM: read-out: Inhibition Rate at 2 µM (%)
T1 construct: purchased CISBIO 64BDCRBNPEH
Outline: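 Readout is homogeneous time-resolved fluorescence, measuring displacement of a thalidomide-red tracer from GST-tagged Cereblon detected by a europium anti-GST antibody. Compounds were tested at final 2 µM and 0.5 µM after dilution in diluent #9 (1X).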

H1975 = assay: Tumor cell proliferation inhibition (CellTiter-Meiluncell Luminescent Cell Viability Assay); type: cell-based; conditions: Homo sapiens, 96 hours, Table I-3, EGFR inhibitors
Outline: (§8)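 Luminescent viability read-out (CellTiter-Meiluncell) after compound exposure for a specified time; IC50 determined. Seeding was done the day before dosing with serially diluted compound, final concentrations including 500 nM and 10 nM. Culture at 37°C, 5% CO2.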

BCR-ABL = biological target: T2, BCR-ABL (Homo sapiens, UniProt P00519+P11274+Q96SW2, E27K); assay: Western blot, target protein degradation in K562 Cell; type: cell-based; conditions: substrate protein remaining %, treated at 500 nM and 50 nM, 24 hours
T2 construct: endogenous in cells; host or cells: K562
Method: as §1, §2, §3, §4, §5, §6, §7

SW620 = assay: Tumor cell proliferation inhibition (CellTiter-Meiluncell Luminescent Cell Viability Assay); type: cell-based; conditions: Homo sapiens, 96 hours, Table I-10, BCR-ABL inhibitors
Outline: (§9)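 Following overnight seeding, tumor cells received serial compound dilutions to final levels that included 10 nM and 500 nM. Viability was assessed by luminescence at the end of the specified exposure time. Cultures were kept at 37°C with 5% CO2.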

MM.1S = assay: as above; type: cell-based; conditions: Homo sapiens, MM1.S, MM.1S, 96 hours, Table I-10, BCR-ABL inhibitors; for inhibition at 0.01 µM: 10 nM, read-out: Inhibition Rate at 10 nM (%); for inhibition at 0.5 µM: 500 nM, read-out: Inhibition Rate at 500 nM (%)
Outline: as §9

MV-4-11 = assay: as above; type: cell-based; conditions: Homo sapiens, 96 hours; for inhibition at 0.01 µM: MV4-11, 10 nM, read-out: Inhibition Rate at 10 nM (%); for inhibition at 0.5 µM: MV4-11, 500 nM, read-out: Inhibition Rate at 500 nM (%)
Outline: as §9

RPMI-8226 = assay: as above; type: cell-based; conditions: Homo sapiens, 96 hours; for inhibition at 0.01 µM: 10 nM, read-out: Inhibition Rate at 10 nM (%); for inhibition at 0.5 µM: 500 nM, read-out: Inhibition Rate at 500 nM (%)
Outline: as §9

A375 = assay: as above; type: cell-based; conditions: Homo sapiens, 96 hours, Table I-2, ALK inhibitors
Outline: as §8

CFPAC-1 = assay: as above; type: cell-based; conditions: Homo sapiens, 96 hours, Table I-2, ALK inhibitors
Outline: as §8

T2 sequence (P11274+P00519 fused, stated change not applied): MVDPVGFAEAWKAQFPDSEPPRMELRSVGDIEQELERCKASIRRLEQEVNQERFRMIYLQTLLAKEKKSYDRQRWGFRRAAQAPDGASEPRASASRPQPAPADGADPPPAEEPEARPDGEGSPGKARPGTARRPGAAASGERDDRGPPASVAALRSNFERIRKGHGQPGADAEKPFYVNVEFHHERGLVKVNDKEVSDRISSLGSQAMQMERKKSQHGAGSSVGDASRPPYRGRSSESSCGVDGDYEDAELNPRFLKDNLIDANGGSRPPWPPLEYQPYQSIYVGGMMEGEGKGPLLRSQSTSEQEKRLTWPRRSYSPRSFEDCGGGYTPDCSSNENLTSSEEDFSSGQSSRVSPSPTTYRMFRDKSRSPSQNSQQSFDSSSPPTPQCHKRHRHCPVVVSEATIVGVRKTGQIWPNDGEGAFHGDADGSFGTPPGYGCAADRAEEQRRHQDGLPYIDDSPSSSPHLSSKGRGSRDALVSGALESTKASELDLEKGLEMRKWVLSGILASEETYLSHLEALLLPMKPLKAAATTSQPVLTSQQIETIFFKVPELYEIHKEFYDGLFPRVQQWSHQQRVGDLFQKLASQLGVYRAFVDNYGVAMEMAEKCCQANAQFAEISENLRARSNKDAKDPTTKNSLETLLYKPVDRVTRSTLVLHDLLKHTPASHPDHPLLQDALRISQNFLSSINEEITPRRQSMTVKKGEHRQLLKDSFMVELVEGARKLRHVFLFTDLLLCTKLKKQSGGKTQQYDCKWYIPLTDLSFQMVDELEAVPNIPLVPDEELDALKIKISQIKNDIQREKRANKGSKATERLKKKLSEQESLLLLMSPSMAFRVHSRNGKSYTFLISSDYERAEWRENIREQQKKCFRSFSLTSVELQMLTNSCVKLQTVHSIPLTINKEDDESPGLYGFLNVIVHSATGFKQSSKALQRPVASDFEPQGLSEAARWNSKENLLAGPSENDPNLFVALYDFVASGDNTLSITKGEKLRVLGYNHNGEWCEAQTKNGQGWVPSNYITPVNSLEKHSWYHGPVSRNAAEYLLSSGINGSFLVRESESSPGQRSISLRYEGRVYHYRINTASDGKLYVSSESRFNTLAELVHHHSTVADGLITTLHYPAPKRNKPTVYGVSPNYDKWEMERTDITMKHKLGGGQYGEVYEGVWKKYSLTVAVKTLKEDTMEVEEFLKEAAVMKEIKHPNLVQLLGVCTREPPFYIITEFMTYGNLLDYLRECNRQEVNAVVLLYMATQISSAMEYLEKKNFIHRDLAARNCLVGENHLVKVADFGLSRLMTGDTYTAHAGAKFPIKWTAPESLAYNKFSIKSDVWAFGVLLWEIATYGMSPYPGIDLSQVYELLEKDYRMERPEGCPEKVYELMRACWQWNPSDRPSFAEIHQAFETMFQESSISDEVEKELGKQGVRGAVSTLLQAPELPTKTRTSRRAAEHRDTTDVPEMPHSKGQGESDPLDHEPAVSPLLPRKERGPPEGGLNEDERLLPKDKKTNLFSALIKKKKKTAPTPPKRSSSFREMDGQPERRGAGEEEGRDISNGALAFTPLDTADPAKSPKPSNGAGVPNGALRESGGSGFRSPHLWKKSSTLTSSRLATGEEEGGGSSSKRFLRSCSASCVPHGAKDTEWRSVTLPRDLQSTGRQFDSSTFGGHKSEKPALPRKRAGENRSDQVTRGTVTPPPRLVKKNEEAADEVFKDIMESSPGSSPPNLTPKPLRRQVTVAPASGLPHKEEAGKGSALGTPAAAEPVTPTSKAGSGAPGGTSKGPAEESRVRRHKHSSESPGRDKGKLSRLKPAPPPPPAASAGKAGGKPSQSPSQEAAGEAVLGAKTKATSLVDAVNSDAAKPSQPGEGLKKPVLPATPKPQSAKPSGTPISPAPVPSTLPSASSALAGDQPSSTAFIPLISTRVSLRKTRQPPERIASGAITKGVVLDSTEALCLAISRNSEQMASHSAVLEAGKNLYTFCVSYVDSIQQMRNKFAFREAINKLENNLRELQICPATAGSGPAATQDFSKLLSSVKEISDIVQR
T2 sequence (Q96SW2 whole entry, stated change not applied): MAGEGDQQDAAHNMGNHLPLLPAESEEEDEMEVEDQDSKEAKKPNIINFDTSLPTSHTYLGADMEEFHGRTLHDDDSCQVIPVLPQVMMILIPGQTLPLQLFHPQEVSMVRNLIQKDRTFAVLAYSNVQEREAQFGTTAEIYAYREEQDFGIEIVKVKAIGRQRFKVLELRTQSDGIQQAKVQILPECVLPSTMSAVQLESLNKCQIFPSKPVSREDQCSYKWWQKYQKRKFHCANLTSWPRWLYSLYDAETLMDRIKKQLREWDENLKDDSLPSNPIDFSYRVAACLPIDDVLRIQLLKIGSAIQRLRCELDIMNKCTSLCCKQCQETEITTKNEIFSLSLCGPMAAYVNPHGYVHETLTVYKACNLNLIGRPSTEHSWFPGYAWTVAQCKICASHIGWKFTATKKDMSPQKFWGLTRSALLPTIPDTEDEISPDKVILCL
T2 sequence (Q16531 whole entry partner): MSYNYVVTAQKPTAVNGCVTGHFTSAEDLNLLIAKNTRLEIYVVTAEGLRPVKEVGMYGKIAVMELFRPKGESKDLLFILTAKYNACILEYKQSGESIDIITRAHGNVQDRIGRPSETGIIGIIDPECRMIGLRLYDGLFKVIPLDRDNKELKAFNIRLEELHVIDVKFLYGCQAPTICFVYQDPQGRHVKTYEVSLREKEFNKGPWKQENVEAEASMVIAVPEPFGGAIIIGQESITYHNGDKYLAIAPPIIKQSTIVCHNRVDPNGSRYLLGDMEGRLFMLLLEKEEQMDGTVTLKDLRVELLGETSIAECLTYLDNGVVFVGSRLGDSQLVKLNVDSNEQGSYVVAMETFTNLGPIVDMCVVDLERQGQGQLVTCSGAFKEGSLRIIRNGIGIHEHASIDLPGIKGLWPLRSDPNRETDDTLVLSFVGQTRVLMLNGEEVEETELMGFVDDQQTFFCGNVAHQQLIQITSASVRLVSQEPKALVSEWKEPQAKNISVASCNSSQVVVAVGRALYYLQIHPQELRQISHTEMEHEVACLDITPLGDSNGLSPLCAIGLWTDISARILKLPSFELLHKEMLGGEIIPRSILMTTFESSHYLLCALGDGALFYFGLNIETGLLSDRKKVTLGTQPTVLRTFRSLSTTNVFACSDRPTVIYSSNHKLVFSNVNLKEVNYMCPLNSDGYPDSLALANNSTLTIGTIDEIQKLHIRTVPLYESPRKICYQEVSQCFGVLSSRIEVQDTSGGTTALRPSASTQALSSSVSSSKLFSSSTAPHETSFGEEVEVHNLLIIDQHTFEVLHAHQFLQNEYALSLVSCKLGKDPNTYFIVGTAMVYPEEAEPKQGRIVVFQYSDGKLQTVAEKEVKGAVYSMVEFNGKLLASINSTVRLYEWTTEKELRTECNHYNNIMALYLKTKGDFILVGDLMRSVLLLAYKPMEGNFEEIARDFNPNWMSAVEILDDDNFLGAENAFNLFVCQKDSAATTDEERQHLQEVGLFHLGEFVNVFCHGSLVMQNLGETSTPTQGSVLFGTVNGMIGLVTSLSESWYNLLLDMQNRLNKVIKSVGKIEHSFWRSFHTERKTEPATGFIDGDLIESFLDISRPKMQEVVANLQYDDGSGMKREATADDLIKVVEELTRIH
T1 sequence (Q96SW2 whole entry): as the sequence (Q96SW2 whole entry, stated change not applied) above

- inhibition at 0.5 µM [1]: 60 to 80%
- inhibition at 2 µM [1]: 60 to 80%
Compound: O=C1CCC(N2Cc3ccc(CN4C[C@H]5C[C@@H]4CN5c4ccc(-c5cc(F)c6c(c5)C(=O)N(C(C(=O)Nc5nccs5)c5ncn7c5CCC7)C6)cc4)cc3C2=S)C(=O)N1 (stereo partly drawn) [GT-08764, 2-(6,7-dihydro-5H-pyrrolo[1,2-c]imidazol-1-yl)-2-(6-(4-((1R,4R)-5-((2-(2,6-dioxopiperidin-3-yl)-3-thioxoisoindolin-5-yl)methyl)-2,5-diazabicyclo[2.2.1]heptan-2-yl)phenyl)-4-fluoro-1-oxoisoindolin-2-yl)-N-(thiazol-2-yl)acetamide]
- Degradation of substrate protein EGFR (EGFR): A (0% ≤ substrate protein remaining % ≤ 80%)
- inhibition at 0.01 µM (H1975; NCI-H1975, 10 nM, read-out: Inhibition Rate at 10 nM (%)): 20 to 30%
- inhibition at 0.5 µM (H1975; NCI-H1975, 500 nM, read-out: Inhibition Rate at 500 nM (%)): 50 to 60%

Compound: Cc1ccc(C(=O)Nc2ccc(CN3CCN(Cc4ccc5c(c4)CN(C4CCC(=O)NC4=O)C5=S)CC3)c(C(F)(F)F)c2)cc1C#Cc1cnc2cccnn12 (stereo not drawn) [GT-08767, N-(4-((4-((2-(2,6-dioxopiperidin-3-yl)-1-thioxoisoindolin-5-yl)methyl)piperazin-1-yl)methyl)-3-(trifluoromethyl)phenyl)-3-(imidazo[1,2-b]pyridazin-3-ylethynyl)-4-methylbenzamide]
- Degradation of substrate protein BCR-ABL (BCR-ABL): A (0% ≤ substrate protein remaining % ≤ 80%)
- inhibition at 0.01 µM (SW620; SW-620, 10 nM, read-out: Inhibition Rate at 10 nM (%)): 40 to 50%
- inhibition at 0.5 µM (SW620; SW-620, 500 nM, read-out: Inhibition Rate at 500 nM (%)): 80 to 100%
- inhibition at 0.01 µM (MM.1S): 70 to 80%
- inhibition at 0.5 µM (MM.1S): 80 to 100%
- inhibition at 0.01 µM (MV-4-11; Table I-10, BCR-ABL inhibitors): 80 to 100%
- inhibition at 0.5 µM (MV-4-11; Table I-10, BCR-ABL inhibitors): 80 to 100%
- inhibition at 0.01 µM (RPMI-8226; Table I-10, BCR-ABL inhibitors): 20 to 30%
- inhibition at 0.5 µM (RPMI-8226; Table I-10, BCR-ABL inhibitors): 80 to 100%

- inhibition at 0.5 µM [1]: 60 to 80%
- inhibition at 2 µM [1]: 80 to 100%
Compound: COc1cc(N2CCC(N3CCN(Cc4ccc5c(c4)CN(C4CCC(=O)NC4=O)C5=S)CC3)CC2)ccc1Nc1ncc(Cl)c(Nc2ccccc2P(C)(C)=O)n1 (stereo not drawn) [GT-09425, 3-(5-((4-(1-(4-((5-chloro-4-((2-(dimethylphosphoryl)phenyl)amino)pyrimidin-2-yl)amino)-3-methoxyphenyl)piperidin-4-yl)piperazin-1-yl)methyl)-1-thioxoisoindolin-2-yl)piperidine-2,6-dione]
- inhibition at 0.01 µM (A375; A-375, 10 nM, read-out: Inhibition Rate at 10 nM (%)): 20 to 30%
- inhibition at 0.5 µM (A375; A-375, 500 nM, read-out: Inhibition Rate at 500 nM (%)): 50 to 60%
- inhibition at 0.01 µM (CFPAC-1; 10 nM, read-out: Inhibition Rate at 10 nM (%)): 10 to 20%
- inhibition at 0.5 µM (CFPAC-1; 500 nM, read-out: Inhibition Rate at 500 nM (%)): 60 to 70%

Compound: Cc1ccc(C(=O)Nc2ccc(N3CCN(Cc4cccc5c4CN(C4CCC(=O)NC4=O)C5=S)CC3)c(C(F)(F)F)c2)cc1C#Cc1cnc2cccnn12 (stereo not drawn) [GT-08774, N-(4-(4-((2-(2,6-dioxopiperidin-3-yl)-1-thioxoisoindolin-4-yl)methyl)piperazin-1-yl)-3-(trifluoromethyl)phenyl)-3-(imidazo[1,2-b]pyridazin-3-ylethynyl)-4-methylbenzamide]
- Degradation of substrate protein BCR-ABL (BCR-ABL): A (0% ≤ substrate protein remaining % ≤ 80%)
- inhibition at 0.01 µM (MV-4-11; Table I-10, BCR-ABL inhibitors): 20 to 30%
- inhibition at 0.5 µM (MV-4-11; Table I-10, BCR-ABL inhibitors): 70 to 80%

Compound: Cc1ccc(C(=O)Nc2ccc(N3CCN(Cc4ccc5c(c4)CN(C4CCC(=O)NC4=O)C5=S)CC3)c(C(F)(F)F)c2)cc1C#Cc1cnc2cccnn12 (stereo not drawn) [GT-08768, N-(4-(4-((2-(2,6-dioxopiperidin-3-yl)-1-thioxoisoindolin-5-yl)methyl)piperazin-1-yl)-3-(trifluoromethyl)phenyl)-3-(imidazo[1,2-b]pyridazin-3-ylethynyl)-4-methylbenzamide]
- Degradation of substrate protein BCR-ABL (BCR-ABL): A (0% ≤ substrate protein remaining % ≤ 80%)

- inhibition at 0.5 µM [1]: 60 to 80%
- inhibition at 2 µM [1]: 80 to 100%
Compound: COc1cc(N2CCC(N3CCN(Cc4ccc5c(c4)C(=S)N(C4CCC(=O)NC4=O)C5)CC3)CC2)c(C)cc1Nc1ncc(Br)c(Nc2ccc3nccnc3c2P(C)(C)=O)n1 (stereo not drawn) [GT-08762, 3-(6-((4-(1-(4-((5-bromo-4-((5-(dimethylphosphoryl)quinoxalin-6-yl)amino)pyrimidin-2-yl)amino)-5-methoxy-2-methylphenyl)piperidin-4-yl)piperazin-1-yl)methyl)-1-thioxoisoindolin-2-yl)piperidine-2,6-dione]
- Degradation of substrate protein EGFR (EGFR): A (0% ≤ substrate protein remaining % ≤ 80%)
- inhibition at 0.01 µM (MV-4-11; Table I-3, EGFR inhibitors): 30 to 40%
- inhibition at 0.5 µM (MV-4-11; Table I-3, EGFR inhibitors): 80 to 100%
- inhibition at 0.01 µM (RPMI-8226; Table I-3, EGFR inhibitors): 30 to 40%
- inhibition at 0.5 µM (RPMI-8226; Table I-3, EGFR inhibitors): 40 to 50%

- inhibition at 0.5 µM [1]: 40 to 53%
- inhibition at 2 µM [1]: 60 to 80%
Compound: O=C1CCC(N2Cc3c(CN4CCN(C5CCN(c6ncc(C(=O)Nc7ccc(OC(F)(F)Cl)cc7)cc6-c6cc[nH]n6)CC5)CC4)cccc3C2=S)C(=O)N1 (stereo not drawn) [GT-08776, N-(4-(chlorodifluoromethoxy)phenyl)-6-(4-(4-((2-(2,6-dioxopiperidin-3-yl)-1-thioxoisoindolin-4-yl)methyl)piperazin-1-yl)piperidin-1-yl)-5-(1H-pyrazol-3-yl)nicotinamide]
- Degradation of substrate protein BCR-ABL (BCR-ABL): A (0% ≤ substrate protein remaining % ≤ 80%)

- inhibition at 0.5 µM [1]: 20 to 30%
- inhibition at 2 µM [1]: 60 to 80%
Compound: O=C1CCC(N2Cc3cc(CN4CCN(C5CCN(c6ncc(C(=O)Nc7ccc(OC(F)(F)Cl)cc7)cc6-c6cc[nH]n6)CC5)CC4)ccc3C2=S)C(=O)N1 (stereo not drawn) [GT-08770, N-(4-(chlorodifluoromethoxy)phenyl)-6-(4-(4-((2-(2,6-dioxopiperidin-3-yl)-1-thioxoisoindolin-5-yl)methyl)piperazin-1-yl)piperidin-1-yl)-5-(1H-pyrazol-3-yl)nicotinamide]
- Degradation of substrate protein BCR-ABL (BCR-ABL): A (0% ≤ substrate protein remaining % ≤ 80%)
- inhibition at 0.01 µM (MM.1S): 5 to 10%
- inhibition at 0.5 µM (MM.1S): 30 to 40%
- inhibition at 0.01 µM (RPMI-8226; Table I-10, BCR-ABL inhibitors): 10 to 20%
- inhibition at 0.5 µM (RPMI-8226; Table I-10, BCR-ABL inhibitors): 40 to 50%

- inhibition at 0.5 µM [1]: 30 to 40%
- inhibition at 2 µM [1]: 80 to 100%
Compound: COC1CCN(c2nccc(Nc3cc4c(cn3)c(N3CCN(Cc5ccc6c(c5)C(=S)N(C5CCC(=O)NC5=O)C6)CC3)nn4C(C)C)n2)CC1 (stereo not drawn) [GT-08763, 3-(6-((4-(1-isopropyl-6-((2-(4-methoxypiperidin-1-yl)pyrimidin-4-yl)amino)-1H-pyrazolo[4,3-c]pyridin-3-yl)piperazin-1-yl)methyl)-1-thioxoisoindolin-2-yl)piperidine-2,6-dione]
- Degradation of substrate protein EGFR (EGFR): A (0% ≤ substrate protein remaining % ≤ 80%)
- inhibition at 0.01 µM (MV-4-11; Table I-3, EGFR inhibitors): 30 to 40%
- inhibition at 0.5 µM (MV-4-11; Table I-3, EGFR inhibitors): 50 to 60%
- inhibition at 0.01 µM (RPMI-8226; Table I-3, EGFR inhibitors): 30 to 40%
- inhibition at 0.5 µM (RPMI-8226; Table I-3, EGFR inhibitors): 50 to 60%
